Measurements taken from article PMC11677527, “Predicting Pharmacokinetics of Active Constituents in Spatholobi caulis by Using Physiologically Based Pharmacokinetic Models” (Pharmaceuticals, 2024).
Like-named read-outs stand apart in the source and are kept apart here.

Key:
[1] = Observed pharmacokinetics in rats after oral SPC (previous study); type: in vivo, rat; details: p.o. SPC
[2] = Verification pharmacokinetic experiment in rats, SPC 60 g crude drug/kg by gavage, UFLC-MS/MS, DAS 2.0; type: in vivo, rat
Experimental: To validate the accuracy of PBPK models in predicting the pharmacokinetics of SPC constituents at different oral doses, the pharmacokinetic behavior of these four constituents from SPC in rats were analyzed by UFLC-MS/MS. The parameters were calculated using Drug and Statistics Software version 2.0, and then these validated values (Val.) were used to check the accuracy of the Calc. values and evaluated by FE.
The pharmacokinetic fitting results of rats given 60 g crude drug/kg body weight of SPC by gavage were verified by experiments. The verification experiment was conducted according to our previous pharmacokinetic study. In brief, 1.5 mL suspension of SPC was given to rats by oral administration; 300 μL blood samples from orbital venous at 0.083, 0.25, 0.5, 0.75, 1.0, 1.5, 2, 3, 4, 6, 8, and 12 h were collected and pretreated with heparin sodium. After centrifugation, the plasma samples were obtained and further processed for subsequent detection by UFLC-MS/MS; the detailed analysis method is shown in Supplementary Data (Table S1 and Figure S1). The concentration-time curve of each compound was gained, and the pharmacokinetic parameters were calculated using DAS 2.0 software (DAS 2.0, Mathematical Pharmacology Professional Committee of China, Shanghai, China). The results of these four constituents were compared with the PBPK parameters predicted in rats at an oral dose of 60 g crude drug/kg body weight of SPC.
1. The instrument and analytical conditions of UFLC-MS/MS method
4 constituents (1. 3′-methoxydadizein; 2. 8-O-methylretusin; 3. Daidzin; and 4. […]
The internal standard (IS) carbamazepine with a purity of more than 99 % was purchased from Beijing JK-chemical technology Co. Ltd., (Beijing China). Heparin sodium was gained from Tianjin biochemical pharmaceutical Co. Ltd, (Tianjin, China).
Ammonium acetate of HPLC grade, methanol and acetonitrile of LC-MS grade were purchased from Sigma (LOT# BCBK6717V, sigma-aldrich, Co., MO, USA) and Fisher (Fisher Corp., Fair lawn, NJ, USA) respectively. The experimental ultrapure water was prepared by Millipore Milli-Q ultrapure water preparation apparatus (Millipore Sigma, […]
The detailed information of Shimadzu UFLC-MS/MS 8050 liquid mass system equipped with Nexera X2UFLC liquid chromatography system and 8050 triple quadrupole mass spectrometers with an electrospray ionization source were listed in our previous study. The supporting LabSolution workstation was used for data […]
The separation without superposition of analytes in plasma sample was achieved on a Kinetex® C18 chromatographic column (100mm×2.1mm i.d.; 2.6 μm, 100 Å; Phenomenex, Inc., Torrance, CA, USA) assembled with a Phenomenex p/n AJ0-9000 C18 protection column. The mobile phase was consisted of 0.5 mM ammonium acetate in water (A) and ACN (B). The gradient elution program was selected ultimately as […]
95 % B (18.7–22 min). Column and automatic sampler temperature were set as 30 °C and 4 °C respectively. The flow rate of mobile phase was 0.35 mL/min while sample injection volume was 4 μL.
Multiple reaction monitoring (MRM) of positive or negative modes were used as scanning modes for the analytes and IS. Other essential parameters were successively optimized as: Nebulizing gas flow, 3 L/min; Heating gas flow, 10 L/min; Drying gas flow, 10 L/min; Interface temperature, 300 °C; DL temperature, 250 °C; Interface and detector voltage were each set as 3.0 kV and 1.8 kV. The detection parameters such as retention time (RT), dwell time (DT), quadrupole 1 pre-rod bias (Q1), collision energy […]
Table S1 The retention time and ion equivalent parameters of 4 constituents in rat […]
Constituents Retention Precursor Precursor Product time Pre energy Pre time (min) ion species ion ion (msec) Bias (V) Bias

Caco-2 cell monolayer = tested on: Caco-2 cell monolayer; design: method as in PMID 36680806, PMID 26501241; details: Caco-2 cell monolayer model; cited from earlier work
[3] = design: method as in PMID 34303214; details: rats, p.o. SPC 30 g crude drug/kg; doses of 1-4: 0.062, 0.11, 0.71, 1.31 mg/kg; cited from earlier work
[4] = compartment model parameters, DAS 2.0, rats p.o. SPC 60 g crude drug/kg, Mean, 5 rats
[5] = statistical moment parameters, DAS 2.0, rats p.o. SPC 60 g crude drug/kg, Mean, 5 rats
[6] = statistical moment parameters, DAS 2.0, rats p.o. SPC 60 g crude drug/kg, Mean, 5 rats, in µg·h²/mL

With `COc1cc(-c2coc3cc(O)ccc3c2=O)ccc1O` [Constituent 1, 3′-methoxydadizein] the “time of slight secondary absorption peak” value [1] was 6 h, the K10 [2, 4] was 0.474 h⁻¹ and the K12 [2, 4] was 0.207 h⁻¹. It also gave a K21 [2, 4] of 0.135 h⁻¹, a Ka [2, 4] of 4.239 h⁻¹ and a Tlag [2, 4] of 0 h. The V1/F [2, 4] was 12.821 L/kg, the t1/2Ka [2, 4] was 0.185 h and the t1/2α [2, 4] was 1.009 h. For the same compound, the concentration at 0.083 h ([2]; rat, plasma, oral, time 0.083 h, rats p.o. SPC 60 g crude drug/kg, doses of 1-4: 0.124, 0.22, 1.4, 2.62 mg/kg, 5 rats) was 2.98 ng/mL, the concentration at 0.25 h ([2]; rat, plasma, oral, time 0.25 h, rats p.o. SPC 60 g crude drug/kg, doses of 1-4: 0.124, 0.22, 1.4, 2.62 mg/kg, 5 rats) was 5.52 ng/mL and the concentration at 0.5 h ([2]; rat, plasma, oral, time 0.5 h, rats p.o. SPC 60 g crude drug/kg, doses of 1-4: 0.124, 0.22, 1.4, 2.62 mg/kg, 5 rats) was 7.09 ng/mL. It also gave a concentration at 0.75 h ([2]; rat, plasma, oral, time 0.75 h, rats p.o. SPC 60 g crude drug/kg, doses of 1-4: 0.124, 0.22, 1.4, 2.62 mg/kg, 5 rats) of 6.16 ng/mL, a concentration at 1 h ([2]; rat, plasma, oral, time 1 h, rats p.o. SPC 60 g crude drug/kg, doses of 1-4: 0.124, 0.22, 1.4, 2.62 mg/kg, 5 rats) of 5.77 ng/mL and a concentration at 1.5 h ([2]; rat, plasma, oral, time 1.5 h, rats p.o. SPC 60 g crude drug/kg, doses of 1-4: 0.124, 0.22, 1.4, 2.62 mg/kg, 5 rats) of 5.11 ng/mL. The concentration at 2 h ([2]; rat, plasma, oral, time 2 h, rats p.o. SPC 60 g crude drug/kg, doses of 1-4: 0.124, 0.22, 1.4, 2.62 mg/kg, 5 rats) was 2.89 ng/mL, the concentration at 3 h ([2]; rat, plasma, oral, time 3 h, rats p.o. SPC 60 g crude drug/kg, doses of 1-4: 0.124, 0.22, 1.4, 2.62 mg/kg, 5 rats) was 1.75 ng/mL and the concentration at 4 h ([2]; rat, plasma, oral, time 4 h, rats p.o. SPC 60 g crude drug/kg, doses of 1-4: 0.124, 0.22, 1.4, 2.62 mg/kg, 5 rats) was 1.46 ng/mL. The concentration at 6 h ([2]; rat, plasma, oral, time 6 h, rats p.o. SPC 60 g crude drug/kg, doses of 1-4: 0.124, 0.22, 1.4, 2.62 mg/kg, 5 rats) was 0.553 ng/mL, the concentration at 8 h ([2]; rat, plasma, oral, time 8 h, rats p.o. SPC 60 g crude drug/kg, doses of 1-4: 0.124, 0.22, 1.4, 2.62 mg/kg, 5 rats) was 0.582 ng/mL and the concentration at 12 h ([2]; rat, plasma, oral, time 12 h, rats p.o. SPC 60 g crude drug/kg, doses of 1-4: 0.124, 0.22, 1.4, 2.62 mg/kg, 5 rats) was 0.197 ng/mL. It also gave an AUC(0-t) ([2]; rat, plasma, po, 0.124 mg/kg, compartment model parameters, DAS 2.0, rats p.o. SPC 60 g crude drug/kg, Mean, 5 rats, read-out: AUC(0-t)) of 19.1 ng·h/mL, an AUC(0-inf) ([2]; rat, plasma, po, 0.124 mg/kg, compartment model parameters, DAS 2.0, rats p.o. SPC 60 g crude drug/kg, Mean, 5 rats, read-out: AUC(0-∞)) of 20.5 ng·h/mL and a CL/F ([2]; rat, plasma, po, 0.124 mg/kg, compartment model parameters, DAS 2.0, rats p.o. SPC 60 g crude drug/kg, Mean, 5 rats, read-out: CL/F (converted)) of 101 mL/min/kg. For the same compound, the half-life ([2]; rat, plasma, po, 0.124 mg/kg, compartment model parameters, DAS 2.0, rats p.o. SPC 60 g crude drug/kg, Mean, 5 rats, read-out: t1/2β (converted)) was 14.4 h, the AUC(0-t) ([2]; rat, plasma, po, 0.124 mg/kg, statistical moment parameters, DAS 2.0, rats p.o. SPC 60 g crude drug/kg, Mean, 5 rats, read-out: AUC(0-t)) was 19.1 ng·h/mL and the AUC(0-inf) ([2]; rat, plasma, po, 0.124 mg/kg, statistical moment parameters, DAS 2.0, rats p.o. SPC 60 g crude drug/kg, Mean, 5 rats, read-out: AUC(0-∞)) was 20 ng·h/mL. The CL/F ([2]; rat, plasma, po, 0.124 mg/kg, statistical moment parameters, DAS 2.0, rats p.o. SPC 60 g crude drug/kg, Mean, 5 rats, read-out: CLz/F (converted)) was 103 mL/min/kg, the Cmax ([2]; rat, plasma, po, 0.124 mg/kg, statistical moment parameters, DAS 2.0, rats p.o. SPC 60 g crude drug/kg, Mean, 5 rats, read-out: Cmax) was 7.18 ng/mL and the MRT last ([2]; rat, plasma, po, 0.124 mg/kg, statistical moment parameters, DAS 2.0, rats p.o. SPC 60 g crude drug/kg, Mean, 5 rats, read-out: MRT(0-t)) was 2.77 h. For the same compound, the MRT inf ([2]; rat, plasma, po, 0.124 mg/kg, statistical moment parameters, DAS 2.0, rats p.o. SPC 60 g crude drug/kg, Mean, 5 rats, read-out: MRT(0-∞)) was 3.44 h, the Tmax ([2]; rat, plasma, po, 0.124 mg/kg, statistical moment parameters, DAS 2.0, rats p.o. SPC 60 g crude drug/kg, Mean, 5 rats, read-out: Tmax) was 0.55 h and the Vd/F ([2]; rat, plasma, po, 0.124 mg/kg, statistical moment parameters, DAS 2.0, rats p.o. SPC 60 g crude drug/kg, Mean, 5 rats, read-out: Vz/F) was 25.9 L/kg. For the same compound, the half-life ([2]; rat, plasma, po, 0.124 mg/kg, statistical moment parameters, DAS 2.0, rats p.o. SPC 60 g crude drug/kg, Mean, 5 rats, read-out: t1/2z (converted)) was 2.9 h, the AUC(0-t) ([2]; rat, plasma, po, 2.62 mg/kg, rats, p.o. SPC 60 g crude drug/kg, doses of 1-4: 0.124, 0.22, 1.42, 2.62 mg/kg, n = 5, read-out: AUC0→t Val.) was 19.1 ng·h/mL and the AUC(0-inf) ([2]; rat, plasma, po, 2.62 mg/kg, rats, p.o. SPC 60 g crude drug/kg, doses of 1-4: 0.124, 0.22, 1.42, 2.62 mg/kg, n = 5, read-out: AUC0→∞ Val.) was 20 ng·h/mL. It also gave a Cmax ([2]; rat, plasma, po, 2.62 mg/kg, rats, p.o. SPC 60 g crude drug/kg, doses of 1-4: 0.124, 0.22, 1.42, 2.62 mg/kg, n = 5, read-out: Cmax Val.) of 7.2 ng/mL, a Tmax ([2]; rat, plasma, po, rats, p.o. SPC 60 g crude drug/kg, doses of 1-4: 0.124, 0.22, 1.42, 2.62 mg/kg, n = 5, read-out: Tmax Val.) of 0.55 h and a Cz [2, 5] of 0.202 µg/L. For the same compound, the “VRT(0-t)” value [2, 5] was 7.148 h^2, the “VRT(0-∞)” value [2, 5] was 16.239 h^2 and the elimination rate constant [2, 5] was 0.247 h⁻¹. For the same compound, the “AUMC(0-t)” value [2, 6] was 52.953, the “AUMC(0-∞)” value [2, 6] was 68.893 and the Papp (Caco-2 cell monolayer) was 2.2 ×10⁻⁶ cm/s. The “AUC0→t Obs.” value [3] was 8.4 ng·h/mL, the “AUC0→∞ Obs.” value [3] was 9 ng·h/mL and the “Cmax Obs.” value [3] was 3.9 ng/mL. For the same compound, the “Tmax Obs.” value [3] was 0.42 h.
